Reference: US10010547B2 (CASCADIAN THERAPEUTICS, INC., priority 2014, dated 2018)
Where a name gives a salt, the structure may show the parent alone. Read-outs that look alike come from different tables or passages of the source.

Assays:
Chk-1 kinase = Chk-1 kinase (Homo sapiens (Human), UniProt O14757); assay: Chk-1 Kinase Inhibiting Activity (33P-ATP filter assay, CHKtide substrate); format: biochemical; conditions: against Chk-1 kinase; read-out: IC50
Method: Chk-1 Kinase Inhibiting Activity
The compounds of the invention were tested for activity against Chk-1 kinase using the materials and protocols set out below.
Base Reaction buffer: 20 mM Hepes (pH 7.5), 10 mM MgCl2, 1 mM EGTA, 0.02% Brij35, 0.02 mg/ml BSA, 0.1 mM Na3VO4, 2 mM DTT, 1% DMSO
*Required cofactors are added individually to each kinase reaction
(i) Prepare indicated substrate in freshly prepared Base Reaction Buffer
(ii) Deliver any required cofactors to the substrate solution above
(iii) Deliver indicated kinase into the substrate solution and gently mix
(iv) Deliver compounds in DMSO into the kinase reaction mixture
(v) Deliver ^33P-ATP (specific activity 0.01 μCi/μl final) into the reaction mixture to initiate the reaction.
(vi) Incubate kinase reaction for 120 minutes at room temperature
(vii) Reactions are spotted onto P81 ion exchange paper (Whatman #3698-915)
(viii) Wash filters extensively in 0.1% phosphoric acid.
(ix) Dry filters and measure counts in scintillation counter
Recombinant full length construct, N-terminal GST tagged, purified from insect cells.
No special measures were taken to activate this kinase.
Final concentration in assay=0.5 nM
Peptide sequence: [[…]]
Final concentration in assay=20 μM
No additional cofactors are added to the reaction mixture
From the results obtained by following the above protocol, the IC50 values against Chk-1 kinase of each of the compounds of Examples 1-153 were determined and these are shown in Table 3.

MIA PaCa-2 cells = assay: Gemcitabine Combination Cell Assay (Cell Titer Glo); format: cell-based; conditions: for IC50: Homo sapiens; for 10xLS: approximate concentration of Chk1 inhibitor that results in a 10-fold reduction in the IC50 of gemcitabine alone; for 2xLS: approximate concentration of Chk1 inhibitor that results in a two-fold reduction in the IC50 of gemcitabine alone
Method: Gemcitabine Combination Cell Assay
Exponentially growing MIA PaCa-2 (ATCC CRL-1420) cells are treated with trypsin to remove cells from the plate surface. Approximately 10,000 cells/well are plated in 96 well plates in RPMI containing 10% fetal bovine serum, 1% sodium pyruvate and 1% L-GlutaMax. Cells are allowed to adhere to the plate surface overnight. Serial half-log dilutions of Chk1 inhibitor test compounds and gemcitabine are made with a final highest concentration of 3000 nM and 100 nM, respectively. Chk1 inhibitors and gemcitabine are combined so that each concentration of Chk1 inhibitor is added to each concentration of gemcitabine. Each drug is also tested as a single agent. Drugs are added to adherent cells (in duplicate) and incubated for 72 h. At 72 h the cells are treated with Promega Cell Titer Glo reagent for approximately 15 minutes. Luminescence (relative light units, RLU) is recorded using a BMG Polarstar Omega plate reader. The single agent concentration that results in a 50% reduction in total signal (IC50) is calculated using PRISM software and a four-parameter non-linear regression curve fit. For combination studies the RLUs are plotted using PRISM on an XY plot with the gemcitabine concentration on the X axis and RLU on the Y axis. The RLU for each concentration of Chk1 inhibitor is plotted as a function of gemcitabine concentration. The IC50 for gemcitabine alone and at each concentration of Chk1 is determined using a four-parameter non-linear regression curve fit. The approximate concentration of Chk1 inhibitor that results in a two and ten-fold reduction in the IC50 of gemcitabine alone is calculated as an indication of synergistic potency.
From the results obtained by following the above protocol, the IC50 values against MIAPaca-2 cells of the Chk1 inhibitor alone (Chk1 IC50), the approximate concentration of Chk1 inhibitor that results in a two-fold (2×LS) and a 10-fold (10×LS) reduction in the IC50 of gemcitabine alone of each of the compounds of Examples 1-154 are shown in Table 4.

[1] = Chk1 inhibitor alone, MIA PaCa-2 cells, 72 h, read-out: Chk1 IC50
[2] = MIA PaCa-2, 72 h, read-out: Chk1 IC50 (nM)

Chk-1 kinase, sequence (O14757 whole entry): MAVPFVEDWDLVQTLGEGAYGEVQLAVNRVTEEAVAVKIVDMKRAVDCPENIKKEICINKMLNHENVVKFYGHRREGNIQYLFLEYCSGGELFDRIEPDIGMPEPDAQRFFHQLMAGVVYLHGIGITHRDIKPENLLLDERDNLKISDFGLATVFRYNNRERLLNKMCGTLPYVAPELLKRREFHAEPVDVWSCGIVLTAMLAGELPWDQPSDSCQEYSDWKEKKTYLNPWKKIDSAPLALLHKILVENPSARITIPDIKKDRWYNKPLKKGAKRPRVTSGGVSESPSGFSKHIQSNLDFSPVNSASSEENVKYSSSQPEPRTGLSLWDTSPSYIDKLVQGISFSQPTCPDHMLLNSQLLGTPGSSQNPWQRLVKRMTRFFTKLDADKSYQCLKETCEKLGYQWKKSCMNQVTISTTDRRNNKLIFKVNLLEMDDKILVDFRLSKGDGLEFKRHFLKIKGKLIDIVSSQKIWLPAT

SMILES | IC50 (Chk-1 kinase) [nM] | IC50 (MIA PaCa-2 cells; [1]) [nM] | 10xLS (MIA PaCa-2 cells; MIA PaCa-2 cells, 72 h) [nM] | 2xLS (MIA PaCa-2 cells; MIA PaCa-2 cells, 72 h) [nM] | IC50 (MIA PaCa-2 cells; [2]) [nM]
COc1cc(C2CCOCC2)ccc1-c1cc(Nc2cnc(C#N)cn2)n[nH]1 [Example 48, 5-[[5-(2-methoxy-4-tetrahydropyran-4-yl-phenyl)-1H-pyrazol-3-yl]amino]pyrazine-2-carbonitrile] | 1.5 | 2020 | 1000 | 100 | 
COc1cc(OC[C@H]2CCCN2C)ccc1-c1cc(Nc2cnc(C#N)cn2)n[nH]1 [Example 103, 5-[[5-[2-methoxy-4-[[(2R)-1-methylpyrrolidin-2-yl]methoxy]phenyl]-1H-pyrazol-3-yl]amino]pyrazine-2-carbonitrile hydrochloride] | 0.109 |  | 300 | 3 | 184
COc1cc(C2CN(C)C2)ccc1-c1cc(Nc2cnc(C#N)cn2)n[nH]1 [Example 65, 5-[[5-[2-methoxy-4-(1-methylazetidin-3-yl)phenyl]-1H-pyrazol-3-yl]amino]pyrazine-2-carbonitrile] | 0.022 | 144 | <100 | 3 | 
COc1cc(N2CCN(C(C)C)CC2)ccc1-c1cc(Nc2cnc(C#N)cn2)n[nH]1 [Example 81, 5-[[5-[4-(4-isopropylpiperazin-1-yl)-2-methoxy-phenyl]-1H-pyrazol-3-yl]amino]pyrazine-2-carbonitrile] | 0.15 | 36 | <30 | <3 | 
COc1cc(N2CCN(C)[C@H](C)C2)ccc1-c1cc(Nc2cnc(C#N)cn2)n[nH]1 [Example 92, 5-[[5-[4-[(3R)-3,4-dimethylpiperazin-1-yl]-2-methoxy-phenyl]-1H-pyrazol-3-yl]amino]pyrazine-2-carbonitrile] | 0.016 | 132 | 30 | <3 | 
COc1cc(N2CCOCC2)ccc1-c1cc(Nc2cnc(C#N)cn2)n[nH]1 [Example 79, 5-[[5-(2-methoxy-4-morpholino-phenyl)-1H-pyrazol-3-yl]amino]pyrazine-2-carbonitrile] | 0.4 | 478 | 100 | 3 | 
COc1cc(C2CCNCC2)c(F)cc1-c1cc(Nc2cnc(C#N)cn2)n[nH]1 [Example 58, 5-[[5-[5-fluoro-2-methoxy-4-(4-piperidyl)phenyl]-1H-pyrazol-3-yl]amino]pyrazine-2-carbonitrile] | 0.54 | 676 | 300 | 30 | 
COc1cc(C2CCNCC2)ccc1-c1cc(Nc2ccc(C#N)c(F)c2)n[nH]1 [Example 49, 2-fluoro-4-[[5-[2-methoxy-4-(4-piperidyl)phenyl]-1H-pyrazol-3-yl]amino]benzonitrile] | 36 | 3570 | <3000 | 1000 | 
COc1cc(C2CCNCC2)c(Cl)cc1-c1cc(Nc2cnc(C#N)cn2)n[nH]1 [Example 68, 5-[[5-[5-chloro-2-methoxy-4-(4-piperidyl)phenyl]-1H-pyrazol-3-yl]amino]pyrazine-2-carbonitrile] | 2.9 | 1380 | 1000 | 100 | 
COc1cc(C2CCN(C)CC2(F)F)ccc1-c1cc(Nc2cnc(C#N)cn2)n[nH]1 (stereo not drawn) [Example 97, 5-[[5-[4-(3,3-Difluoro-1-methyl-4-piperidyl)-2-methoxy-phenyl]-1H-pyrazol-3-yl]amino]pyrazine-2-carbonitrile hydrochloride] | 1.1 |  | 300 | 10 | 1500
COc1cc(OC2CCN(C(C)C)CC2)ccc1-c1cc(Nc2cnc(C#N)cn2)n[nH]1 [Example 135, 5-[[5-[4-[(1-isopropyl-4-piperidyl)oxy]-2-methoxy-phenyl]-1H-pyrazol-3-yl]amino]pyrazine-2-carbonitrile] | 0.054 | 334 | 100 | <3 | 
N#Cc1cnc(Nc2cc(-c3ccc(C4CCNCC4)cc3F)[nH]n2)cn1 [Example 51, 5-[[5-[2-fluoro-4-(4-piperidyl)phenyl]-1H-pyrazol-3-yl]amino]pyrazine-2-carbonitrile] | 6.3 | > 3000 | 3000 | 300 | 
COc1cc(OCC2CCNCC2)ccc1-c1cc(Nc2cnc(C#N)cn2)n[nH]1 [Example 36, 5-[[5-[2-methoxy-4-(4-piperidylmethoxy)phenyl]-1H-pyrazol-3-yl]amino]pyrazine-2-carbonitrile] | 0.095 | 281 | 100 | 3 | 
COc1c(-c2cc(Nc3cnc(C#N)cn3)n[nH]2)ccc(C2CCN(C)CC2)c1Cl [Example 69, 5-[[5-[3-chloro-2-methoxy-4-(1-methyl-4-piperidyl)phenyl]-1H-pyrazol-3-yl]amino]pyrazine-2-carbonitrile] | 7.9 | 2200 | 1000 | 100 | 
COc1cc(N2CCN(CC(C)C)CC2)ccc1-c1cc(Nc2cnc(C#N)cn2)n[nH]1 [Example 142, 5-[[5-[4-(4-isobutylpiperazin-1-yl)-2-methoxy-phenyl]-1H-pyrazol-3-yl]amino]pyrazine-2-carbonitrile] | 0.082 | 306 | 100 | 3 | 
COc1cc(C2CCN(CCF)CC2)ccc1-c1cc(Nc2cnc(C#N)cn2)n[nH]1 [Example 106, 5-[[5-[4-[1-(2-fluoroethyl)-4-piperidyl]-2-methoxy-phenyl]-1H-pyrazol-3-yl]amino]pyrazine-2-carbonitrile] | 0.17 | 441 | 100 | 3 | 
CCN1CCO[C@H](c2ccc(-c3cc(Nc4cnc(C#N)cn4)n[nH]3)c(OC)c2)C1 [Example 118, 5-[[5-[2-methoxy-4-[(2R)-4-ethylmorpholin-2-yl]phenyl]-1H-pyrazol-3-yl]amino]pyrazine-2-carbonitrile] | 0.022 | 1200 | 300 | 3 | 
COc1cc(O[C@@H]2CCN(C)C2)ccc1-c1cc(Nc2cnc(C#N)cn2)n[nH]1 [Example 78, 5-[[5-[2-methoxy-4-[(3R)-1-methylpyrrolidin-3-yl]oxy-phenyl]-1H-pyrazol-3-yl]amino]pyrazine-2-carbonitrile] | 0.69 | 136 | 100 | 10 | 
COc1cc(CNCc2ccccc2)ccc1-c1cc(Nc2cnc(C#N)cn2)n[nH]1 [Example 3, 5-{5-[4-(Benzylamino-methyl)-2-methoxy-phenyl]-1H-pyrazol-3-ylamino}-pyrazine-2-carbonitrile hydrochloride] | 0.21 |  | 100 | 10 | 275
COc1cc(CC2CCN(C(C)C)CC2)ccc1-c1cc(Nc2cnc(C#N)cn2)n[nH]1 [Example 144, 5-[[5-[4-[(1-isopropyl-4-piperidyl)methyl]-2-methoxy-phenyl]-1H-pyrazol-3-yl]amino]pyrazine-2-carbonitrile] | 0.026 | 829 | <300 | 10 | 
COc1cc(CN[C@H]2CCOC2)ccc1-c1cc(Nc2cnc(C#N)cn2)n[nH]1 [Example 132, 5-[[5-[2-methoxy-4-[[[(3S)-tetrahydrofuran-3-yl]amino]methyl]phenyl]-1H-pyrazol-3-yl]amino]pyrazine-2-carbonitrile] | 0.11 | 411 | <300 | 3 | 
